Data published in ChEMBL document CHEMBL1201862, “PubChem BioAssay data set” (2004).
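Method: 48-hour compound exposure of cells in 96-well plates, five concentrations, linear interpolation of endpoints. GI50 marks 50% less growth.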 Activity calls are given as the source filed them. No stated cut-off is given here; in the data, active = GI50 up to about 1.1 µM and inactive = higher.

Experiments:
Assay in all cases: growth of human tumour cells (NCI), 48 h
[1] = system: LOX IMVI
[2] = system: DLD-1
[3] = system: SN12C
[4] = system: HOP-62
[5] = system: MOLT-4
[6] = system: OVCAR-8
[7] = system: UACC-62
[8] = system: HT-29
[9] = system: CCRF-CEM
[10] = system: SF-268
[11] = system: A498
[12] = system: SNB-75
[13] = system: OVCAR-5
[14] = system: TK-10
[15] = system: U-251

Row | SMILES | GI50 [1] | GI50 [2] | GI50 [3] | GI50 [4] | GI50 [5] | GI50 [6] | GI50 [7] | GI50 [8] | GI50 [9] | GI50 [10] | GI50 [11] | GI50 [12] | GI50 [13] | GI50 [14] | GI50 [15]
1 | CC12O[C@H](c3ccccc3)[C@H](c3ccccc3)N1C(=O)C1(C(=O)OCc3ccccc3)CC12 (some centres undefined) | > 100 µM (inactive) | 88.1 µM (inactive) | > 100 µM (inactive) | > 100 µM (inactive) | 18.2 µM (inactive) | 92.3 µM (inactive) | > 100 µM (inactive) | 76 µM (inactive) | 28.6 µM (inactive) | > 100 µM (inactive) | > 100 µM (inactive) | > 100 µM (inactive) | > 100 µM (inactive) | – | –
2 | CC1(C)OC2CC3COC(=O)C3CC2O1 (centres undefined) | > 100 µM (inactive) | > 100 µM (inactive) | > 100 µM (inactive) | > 100 µM (inactive) | > 100 µM (inactive) | > 100 µM (inactive) | > 100 µM (inactive) | > 100 µM (inactive) | > 100 µM (inactive) | > 100 µM (inactive) | > 100 µM (inactive) | > 100 µM (inactive) | > 100 µM (inactive) | > 100 µM (inactive) | > 100 µM (inactive)
3 | Cc1cc(O)cc2oc(=O)c3c(O)cc(O)cc3c12 [ALTERNARIOL] | 16.1 µM (inactive) | 30.7 µM (inactive) | 50.5 µM (inactive) | 20.7 µM (inactive) | 7.59 µM (inactive) | 43.2 µM (inactive) | 24 µM (inactive) | 39.3 µM (inactive) | 23.4 µM (inactive) | 27.4 µM (inactive) | 40.1 µM (inactive) | 12.7 µM (inactive) | 69.2 µM (inactive) | 44.5 µM (inactive) | 28.5 µM (inactive)
4 | CCCCCCCCCCCCCCCCNCC(O)CN (centres undefined) | 1.75 µM (inactive) | 1.87 µM (inactive) | 4.07 µM (inactive) | 16.7 µM (inactive) | 2.07 µM (inactive) | 3.53 µM (inactive) | 4.7 µM (inactive) | 1.99 µM (inactive) | 1.96 µM (inactive) | 3.32 µM (inactive) | 18 µM (inactive) | 3.28 µM (inactive) | 7.76 µM (inactive) | – | 2.51 µM (inactive)
5 | COC(=O)C1C(O)C(C)C(O)OC1C(C)C(O)C(C)/C=C\C=C(/C)C(=O)Nc1c(C)c(OC(C)=O)c2c(c1O)C(=O)C(C)=C1OCOC(/C(C)=C/C(C)=O)=C12 (centres undefined) | 13.7 µM (inactive) | 8.93 µM (inactive) | 12.4 µM (inactive) | 11.6 µM (inactive) | 10.7 µM (inactive) | 13.7 µM (inactive) | 14.3 µM (inactive) | 14.5 µM (inactive) | 5.96 µM (inactive) | 3.08 µM (inactive) | 15.2 µM (inactive) | 3.77 µM (inactive) | 13.5 µM (inactive) | – | 14.4 µM (inactive)
6 | N#C/C(=C\c1ccc(O)c(O)c1)c1c(C#N)c(N)nn1-c1ccccc1 | 5.05 µM (inactive) | 18.5 µM (inactive) | 10.3 µM (inactive) | 10 µM (inactive) | – | 5.82 µM (inactive) | 3.81 µM (inactive) | 22 µM (inactive) | 4.11 µM (inactive) | 7.38 µM (inactive) | 2.76 µM (inactive) | 13.3 µM (inactive) | 33 µM (inactive) | 21.8 µM (inactive) | 5.36 µM (inactive)
7 | CC[C@@]1(O)C[C@H](OC2CC(N(C)C)C(O)C(C)O2)c2c(cc3c(c2O)C(=O)c2c(O)ccc(O)c2C3=O)[C@H]1C(=O)OC (some centres undefined) | 0.0229 µM (active) | 0.0514 µM (active) | 0.0377 µM (active) | 0.107 µM (active) | 0.0252 µM (active) | 0.0239 µM (active) | 0.0451 µM (active) | 0.0388 µM (active) | 0.0242 µM (active) | 0.0536 µM (active) | 0.0448 µM (active) | 0.0826 µM (active) | 0.141 µM (active) | – | 0.0405 µM (active)
